The record followed here is US11312726B2, “Thienodiazepine derivatives and application thereof” (priority 2017, dated 2022).

What is called IC50 is the point on the concentration scale where inhibition reaches its midpoint.

The target of this assay is BRD4-BD2 (Homo sapiens (Human), UniProt O60885). Put plainly: BRD4 biochemical activity test (TR-FRET), BD2. The following applies: read-out: BRD4 Binding (BD2), IC50. The source says: BRD4 Biochemical Activity Test
1) BRD4-BD1 and BRD4-BD2 proteins of BPS Company, polypeptide of ANASPEC Company, and test reagent of PerkinElmer Company were used in the experiments;
2) The TR-FRET experimental principle was used in the experiment to screen compounds.
3) Relevant control compounds
1) Preparation of the Compound Plate:
Preparation of the compound plate in the experiment was achieved by Echo:
2) Preparation of Reaction Reagents:
Relevant reaction reagents should be prepared on the day of the experiment:
a) Formulation of 1× assay buffer;
b) Formulation of 3× component solution for the experiment: […]
1. The reagent was taken out and placed on ice to naturally melt for later use;
2. “Solution A” (protein solution), “solution B” (polypeptide solution), and “solution C” (test reagent solution) used in the experiment were formulated with the 1× assay buffer, and during the formation of the 3× solution from the components used in the experiment reaction system, the amounts of solutions A, B and C must be enough for the required amounts in the experiment.
3) Experimental Operation Steps:
The experiment plate was a plate that contained a gradient concentration of the compound and a corresponding DMSO solution and was prepared with ECHO before the experiment:
a) The experiment plate was taken out, and 5 μL/well of “solution A” (protein solution) was added to columns 2-23 of the experiment plate, then 5 μL/well of 1× assay buffer was added to columns 1 and 24 of the experiment plate, and columns 1 and 24 were used as Min control in the experiment system;
b) Centrifugation at 1000 rpm was carried out for 30 seconds;
c) The plate was incubated at 23° C. for 20 minutes;
d) After 20 minutes of incubation, 5 μL/well of “solution B” (polypeptide solution) was added to columns 1-24 of the experiment plate;
e) Centrifugation at 1000 rpm was carried out for 30 seconds;
f) The plate was incubated at 23° C. for 20 minutes;
g) After 20 minutes of incubation, 5 μL/well of “solution C” (test reagent solution) was added to columns 1-24 of the experiment plate;
h) Centrifugation at 1000 rpm was carried out for 30 seconds;
i) The plate was incubated at 23° C. for 40 minutes;
j) The experiment plate was placed on EnVision to read the plate.
a) The corresponding Max control and Min control of each experiment plate were used to convert to the Z′ value of the experiment plate, and the Z′ value of each plate was ensured to be >0.5;
b) The IC50 value was calculated from the signal of the control compound by XLFIT5, and ensured to be maintained within 3 times of the average value of historical data.
In general terms: In TR-FRET formats the signal depends on donor and acceptor labels being close together.

Turning to `Cc1sc2c(c1C)C(c1ccc(Cl)cc1)=N[C@@H](CC(=O)Nc1ccc3c(c1)COC3=O)c1nnc(C)n1-2` [Compound 32], the IC50 came to 10 nM.
